Assay results from patent US12600732B2, “Bifunctional compounds for degrading BTK via ubiquitin proteosome pathway” (NURIX THERAPEUTICS, INC., priority 2019, dated 2026).

Assays:
BTK [1] = target: T1, BTK (Mus musculus, UniProt P35991); assay: Mouse DRF PD, BTK remaining in B cells; format: in vivo; details: blood, 24 h after previous dose
T1 construct: from tissue; host or cells: mouse blood B cells / splenocytes (CD-1 or BALB/c)
Method: A method of determining the pharmacodynamic profile of BTK degraders was performed by dosing either CD-1 or BALB/c mice with CTM. The CTM was prepared in a suitable formulation and was administered via oral gavage (PO) at a suitable dose level and frequency as informed by prior pharmacokinetic and tolerability studies. Following administration of CTM, BTK levels in blood or splenocytes are measured using flow cytometry or HTRF. For assessment of BTK levels via flow cytometry, either whole blood or splenocytes were first treated with ACK RBC lysis buffer to facilitate lysing of red blood cells. Remaining cells were then stained with fluorophore-conjugated antibodies against CD45, TCR beta and CD45R (B220). Cell pellets were washed with 1×PBS, fixed, and permeabilized for twenty-four hours with Foxp3/Transcription Factor Fixation/Permeabilization Kit. Cells were then stained intracellularly with unconjugated BTK antibody and detected with a fluorophore-conjugated secondary antibody. Stained cells were run on an Attune N×T Acoustic Focusing Flow Cytometer (Thermo-Fisher A29004), and data was analyzed using FlowJo (v10.5.3) and GraphPad Prism (v7.00) software. Lymphocytes were gated for B cells defined as CD45+ TCR beta−B220+ and T cells as CD45+ TCR beta+B220−. The BTK geometric mean fluorescence intensity (MFI) was calculated for B and T cells. Percent BTK degradation for each compound-treated sample was calculated using the equation described below: % Degradation=100*(Treated sample B cell BTK MFI-treated sample T cell BTK MFI)/Vehicle B cell BTK MFI-Vehicle T cell BTK MFI)
This example evaluates potency and tolerability of BTK CTMs following multiple, consecutive days of dosing and evaluates potency of compounds for BTK degradation.
The data in the table below is from a study in which animals were dosed daily with the designated oral dose. Analysis for BTK levels was performed twenty-four hours following the previous dose.

BTK [2] = target: BTK (Homo sapiens, UniProt Q06187); assay: Cellular BTK degradation assay (Total BTK HTRF) in TMD8 cells; format: cell-based; parameters: endogenous in cells; host or cells: TMD8; details: treatment time 24 h
BTK (Homo sapiens, UniProt Q06187), sequence (Q06187 whole entry): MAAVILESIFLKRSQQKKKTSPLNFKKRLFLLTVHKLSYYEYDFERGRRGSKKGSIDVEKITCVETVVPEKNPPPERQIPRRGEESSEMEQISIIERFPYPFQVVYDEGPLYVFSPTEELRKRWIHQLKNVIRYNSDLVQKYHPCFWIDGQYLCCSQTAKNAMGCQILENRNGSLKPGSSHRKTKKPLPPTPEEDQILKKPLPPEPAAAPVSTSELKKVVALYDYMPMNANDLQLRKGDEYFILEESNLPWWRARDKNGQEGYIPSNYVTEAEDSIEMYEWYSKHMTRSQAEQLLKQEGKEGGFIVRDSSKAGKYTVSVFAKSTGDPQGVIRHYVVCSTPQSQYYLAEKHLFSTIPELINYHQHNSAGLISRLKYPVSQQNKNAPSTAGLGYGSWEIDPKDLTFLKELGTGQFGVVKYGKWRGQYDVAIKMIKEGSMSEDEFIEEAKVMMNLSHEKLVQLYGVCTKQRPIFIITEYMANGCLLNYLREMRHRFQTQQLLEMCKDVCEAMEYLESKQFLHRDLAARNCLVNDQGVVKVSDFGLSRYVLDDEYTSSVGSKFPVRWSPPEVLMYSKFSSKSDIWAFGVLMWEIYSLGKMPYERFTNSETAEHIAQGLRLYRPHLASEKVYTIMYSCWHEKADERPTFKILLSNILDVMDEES
Method: Cellular BTK Degradation Assay
In Vitro Cellular Screening to Determine Potency as Measured by DC50 Values after Four Hour Incubation
BTK levels were determined using Cisbio Total-BTK HTRF (Homologous Time-Resolved Fluorescence) kit (63ADK064PEG) according to the manufacturer's protocol. Briefly, cells were incubated in 1× supplied lysis buffer for 30 minutes. In an opaque white low volume 96-well plate (Cisbio, 66PL96005), cell lysate was combined with two different specific BTK antibodies, one conjugated with Eu^3+-Cryptate FRET donor and one conjugated with d2 FRET acceptor. Assay controls include wells containing cell lysate with only the Eu^3+-Cryptate FRET donor antibody and wells containing both HTRF antibodies and lysis buffer without cells or control lysate provided by Cisbio. HTRF ratio was calculated as (acceptor signal at 665 nm/donor signal at 620 nm)×10^4. Background HTRF levels were determined from the control well containing the donor, but no acceptor, antibody. Background HTRF levels were subtracted from all samples. Readouts were reported as HTRF levels relative to HTRF levels of DMSO-treated cells. Four-parameter non-linear regressions were performed in GraphPad Prism 7.02 to obtain DC50 values.
Cellular BTK degradation was measured as above for four hours in TMD8 cells for two diastereomers of compound 130. DC50 and EC50 values are the concentration at which the response is halfway between the top and bottom of the fitted non-linear regression curve.
The present example evaluates whether potency of BTK CTMs shifts with longer timepoints. DC50 values are typically calculated with a 4-hour timepoint.

TEC kinase = target: T2, TEC kinase (Homo sapiens, UniProt P42680); assay: TEC kinase degradation in K562 cells (western blot); format: cell-based; details: FIGS. 13A-13D
T2 construct: endogenous in cells; host or cells: K562
T2 sequence (P42680 1-631): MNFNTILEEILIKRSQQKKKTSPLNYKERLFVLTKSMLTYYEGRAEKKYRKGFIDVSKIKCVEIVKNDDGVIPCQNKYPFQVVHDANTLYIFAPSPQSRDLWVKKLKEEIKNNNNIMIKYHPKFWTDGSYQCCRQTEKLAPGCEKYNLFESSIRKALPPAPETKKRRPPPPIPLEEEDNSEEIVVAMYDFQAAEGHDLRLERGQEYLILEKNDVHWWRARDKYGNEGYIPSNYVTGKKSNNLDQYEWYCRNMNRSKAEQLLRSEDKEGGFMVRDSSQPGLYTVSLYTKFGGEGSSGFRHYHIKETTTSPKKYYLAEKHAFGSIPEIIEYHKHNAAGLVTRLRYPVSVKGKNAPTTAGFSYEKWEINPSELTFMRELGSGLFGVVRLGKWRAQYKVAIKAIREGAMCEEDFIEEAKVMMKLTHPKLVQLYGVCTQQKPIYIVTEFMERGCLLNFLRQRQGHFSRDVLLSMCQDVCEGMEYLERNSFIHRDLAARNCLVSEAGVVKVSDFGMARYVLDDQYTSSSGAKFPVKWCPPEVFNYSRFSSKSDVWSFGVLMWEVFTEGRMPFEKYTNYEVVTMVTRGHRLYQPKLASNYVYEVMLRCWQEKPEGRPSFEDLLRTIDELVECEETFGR
Method: To determine effects of BTK CTMs on TEC levels in cells, K562 cells were treated for four hours with CTMs at concentrations between 0.026-2000 nM. TEC levels in cell lysate was assessed by western blot.

BTK [3] = assay: PD data from cyno (BTK degradation); format: in vivo; details: blood
From the text: In this example, compounds were profiled for activity in non-mouse species.

BTK [4] = assay: Non-human primate (cyno) DRF PD, BTK remaining in B cells; format: in vivo; details: blood, 24 h after previous dose
Method: This example evaluates potency and tolerability of BTK CTMs following multiple, consecutive days of dosing and examines potency of compounds for BTK and Aiolos degradation. The data in the table below is from a study in which animals were dosed daily with the designated oral dose. Analysis for BTK and Aiolos levels was performed twenty-four hours following the previous dose.

[5] = 30 mg/kg PO daily, 1 day of dosing
[6] = 30 mg/kg PO daily, 14 days of dosing
[7] = 100 mg/kg PO daily, 1 day of dosing
[8] = 100 mg/kg PO daily, 14 days of dosing

T1 sequence (P35991 whole entry): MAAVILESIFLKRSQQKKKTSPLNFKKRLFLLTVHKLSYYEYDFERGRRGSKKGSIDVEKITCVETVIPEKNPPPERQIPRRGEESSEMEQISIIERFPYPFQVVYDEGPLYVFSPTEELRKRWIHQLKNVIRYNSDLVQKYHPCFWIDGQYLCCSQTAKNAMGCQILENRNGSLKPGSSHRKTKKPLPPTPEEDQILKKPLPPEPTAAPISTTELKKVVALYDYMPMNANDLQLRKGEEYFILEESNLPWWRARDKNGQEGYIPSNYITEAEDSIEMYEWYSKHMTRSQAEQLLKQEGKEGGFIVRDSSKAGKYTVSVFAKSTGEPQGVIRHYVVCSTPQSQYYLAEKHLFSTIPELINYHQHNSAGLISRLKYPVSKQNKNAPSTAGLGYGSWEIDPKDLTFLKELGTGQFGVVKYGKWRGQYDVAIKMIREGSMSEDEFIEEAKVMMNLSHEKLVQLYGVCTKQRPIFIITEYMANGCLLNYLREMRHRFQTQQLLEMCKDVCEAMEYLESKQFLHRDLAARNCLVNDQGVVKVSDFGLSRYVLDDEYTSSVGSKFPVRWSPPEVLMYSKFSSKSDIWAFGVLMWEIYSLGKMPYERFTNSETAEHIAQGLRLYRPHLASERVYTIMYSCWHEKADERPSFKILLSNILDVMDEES

NC(=O)c1ncc(N2CCCCC2)nc1Nc1ccc(C2CCN(C[C@@H]3CCN(c4ccc5c(c4)C(=O)N(C4CCC(=O)NC4=O)C5=O)C3)CC2)cc1 (stereo partly shown) [Compound 149]
% BTK Remaining in B cells (BTK [1]; [5]): 11%
% BTK Remaining in B cells (BTK [1]; [6]): 8%
% BTK Remaining in B cells (BTK [1]; [7]): 10%
% BTK Remaining in B cells (BTK [1]; [8]): 5%
% BTK Remaining in B cells (BTK [1]; 300 mg/kg PO daily, 1 day of dosing): 6%
% BTK Remaining in B cells (BTK [1]; 300 mg/kg PO daily, 14 days of dosing): 2%
DC50 (BTK [2]): 2.3 nM
degradation of BTK compared with TEC (TEC kinase): more potent degradation of BTK than TEC
effects on TEC kinase levels (TEC kinase; four hours, 0.026-2000 nM, western blot): mild to moderate effects
% BTK Remaining (BTK [3]; 1 mg/kg IV, 2 h): 24%
% BTK Remaining (BTK [3]; 1 mg/kg IV, 4 h): 9%
% BTK Remaining (BTK [3]; 1 mg/kg IV, 8 h): 4%
% BTK Remaining (BTK [3]; 1 mg/kg IV, 24 h): 7%
% BTK Remaining (BTK [3]; 10 mg/kg PO, 2 h): 81%
% BTK Remaining (BTK [3]; 10 mg/kg PO, 4 h): 39%
% BTK Remaining (BTK [3]; 10 mg/kg PO, 8 h): 17%
% BTK Remaining (BTK [3]; 10 mg/kg PO, 24 h): 12%
% BTK Remaining (BTK [3]; 30 mg/kg PO, 2 h): 89%
% BTK Remaining (BTK [3]; 30 mg/kg PO, 4 h): 51%
% BTK Remaining (BTK [3]; 30 mg/kg PO, 8 h): 26%
% BTK Remaining (BTK [3]; 30 mg/kg PO, 24 h): 19%
% BTK Remaining (BTK [3]; 100 mg/kg PO, 2 h): 97%
% BTK Remaining (BTK [3]; 100 mg/kg PO, 4 h): 56%
% BTK Remaining (BTK [3]; 100 mg/kg PO, 8 h): 20%
% BTK Remaining (BTK [3]; 100 mg/kg PO, 24 h): 12%
% BTK Remaining in B cells (BTK [4]; 10 mg/kg PO daily, 1 day of dosing): 9%
% BTK Remaining in B cells (BTK [4]; 10 mg/kg PO daily, 14 days of dosing): 7%
% BTK Remaining in B cells (BTK [4]; [5]): 4%
% BTK Remaining in B cells (BTK [4]; [6]): 6%
% BTK Remaining in B cells (BTK [4]; [7]): 3%
% BTK Remaining in B cells (BTK [4]; [8]): 6%
